What was measured:
Type in all cases: cell-based
soluble CD23 = test: Inhibition of release of soluble CD23 from CD23-transfected CHO cells (Procedure 1); settings: CHO cells transfected with alpha form of CD23, 6 hours, ELISA of supernatant; read-out: IC50 (concentration which inhibits the release of soluble CD23 by 50% relative to the control culture)
Experimental: The ability of test compounds to inhibit the release of soluble CD23 was investigated by use of the following procedure.
Adherent Chinese Hamster Ovary cells which had been transfected with the alpha form of CD23 were grown in microtitre plates. Cells were grown to confluence in α-MEM medium with 10% foetal calf serum, 2 mM glutamine containing 800 micro g/ml G418. Medium was removed and the cells washed with sterile phosphate buffered saline. Test compounds were dissolved in dimethyl sulphoxide at a stock concentration of 20 mM, then diluted 1 in 200 with α-MEM containing 800 micro g/ml G418 (no foetal calf serum). […] of the diluted compounds were added to the adherent cells in triplicate wells. Appropriate control cultures were set up in triplicate. The plates were incubated for 6 hours at 37° C., 95% air/5% CO2 in a humidified incubator, then centrifuged at 200× g for 3 minutes. A specific ELISA for CD23, obtained from The Binding Site Limited, Institute of Research and Development, Birmingham England, was used to measure CD23 levels in the culture supernatants.

[1] = test system: Human peripheral blood mononuclear cells; test: Inhibition of formation of human IgE in vitro, peripheral blood mononuclear cells with IL4 (Procedure 3); settings: 12 days, ELISA, IL4 alone 72.4, TCM 0.25
Experimental: (§1) The ability of test compounds to inhibit the formation of human IgE in vitro was investigated using the following procedure:
Human peripheral blood mononuclear cells were separated by centrifugation over Ficoll-Paque (Pharmacia). The cells were suspended in RPMI 1640 medium containing 10% foetal calf serum, 2 mM glutamine, 50 microM 2-mercaptoethanol and 50 micro g/ml gentamycin (TCM) at a concentration of 1.25×10^6 cells/ml. 800 micro l of the cell suspension were aliquoted into the wells of a 48 well plate. […] Test compounds are dissolved in dimethylsulphoxide (DMSO) at a stock dilution of
10^−2M diluted 1 in 100 in TCM and then as above. The plates are incubated for 12 days at 37° C. in a 95% air/5% CO2 humidified incubator. At the end of the culture period the supernatants were removed with the wells and centrifuged (200× g for 10 minutes) to remove any non-adherent cells. There was no toxicity as assessed by trypan blue dye exclusion. The IgE concentration in the supernatants was measured by ELISA.

[2] = test system: Human tonsillar B lymphocytes; test: Inhibition of formation of human IgE in vitro, tonsillar B lymphocytes with IL4 and anti-CD40 (Procedure 4); settings: 11 days, ELISA, stimulated control 11.7, TCM 1.9
Experimental: as §1
Human tonsillar B lymphocytes were suspended in RPMI 1640 medium containing 10% foetal calf serum, 2 mM glutamine, 50 micro M 2-mercaptoethanol and 50 micro g/ml gentamycin (TCM) at a concentration of 1.25×10^6 cells/ml. 800 micro l of the cell suspension were aliquoted into the wells of a 48 well plate. 100 micro l of TCM or IL4 at 100 ng/ml and antibody to CD40 at 10 microg/ml was added in quadriplicate to the appropriate wells, followed by 100 micro l of TCM or 10× the final concentration of compound under investigation. Test compounds are dissolved in DMSO at a stock dilution of 10^−2M diluted 1 in 100 in TCM and then as above. The plates are incubated for 11 days at 37° C. in a 95% air/5% CO2 humidified incubator. At the end of the culture period the supernatents were removed from the wells and centrifuged (200× g for 10 minutes) to remove any non-adherent cells. There was no toxicity as assessed by trypan dye exclusion. The IgE concentration in the supernatants was measured by ELISA.

Structure (SMILES) | IC50 (soluble CD23) [µM] | further results
CNC(=O)[C@@H](Cc1ccccc1)NC(=O)[C@H](CC(C)C)[C@H](CSc1cccs1)C(=O)N[O-].[Na+] [P1, [4-(N-Hydroxyamino)-2-(R)-isobutyl-3-(S)-(2-thiophenethiomethyl)succinyl]-(S)-phenylalanine-N-methylamide, Sodium Salt] | 0.05 | IgE ng/ml (mean +/− sem) ([1]; IL4 (5 ng/ml) with compound at 10^−5 M): 3.2 ± 1.9 ng/mL; IgE ng/ml (mean +/− sem) ([1]; IL4 (5 ng/ml) with compound at 10^−6 M): 21.3 ± 16.5 ng/mL; IgE ng/ml (mean +/− sem) ([1]; IL4 (5 ng/ml) with compound at 10^−7 M): 68.8 ± 21.8 ng/mL; IgE ng/ml (mean +/− sem) ([2]; IL4 (10 ng/ml) and anti CD40 (1 micro g/ml) with compound at 10^−5 M): 2.9 ± 0.2 ng/mL; IgE ng/ml (mean +/− sem) ([2]; IL4 (10 ng/ml) and anti CD40 (1 micro g/ml) with compound at 10^−6 M): 4.3 ± 0.6 ng/mL; IgE ng/ml (mean +/− sem) ([2]; IL4 (10 ng/ml) and anti CD40 (1 micro g/ml) with compound at 10^−7 M): 6.2 ± 0.5 ng/mL
CNC(=O)[C@@H](Cc1ccc(OC)cc1)NC(=O)C(CC(=O)NO)CC(C)C (stereo partly drawn) [P3, N-[3-(N′-Hydroxycarboxamido)-2-(2-methylpropyl)-propanoyl]-(S)-O-methyl-L-tyrosine-N-methylamide] | 3.35 | 
CC[C@@H](N[C@@H](CC(C)C)C(=O)N[C@@H](Cc1ccc(OC)cc1)C(=O)NC)P(=O)(O)O [P7, N-[N-((S)-1-Phosphonopropyl)-(S)-leucyl]-O-methyl-(S)-tyrosine N-methylamide] | 30 | 

The next lines start with results.

IC50 (soluble CD23) [µM] | Structure (SMILES) | further results
2.2 | CNC(=O)[C@H](Cc1c[nH]c2ccccc12)NC(=O)[C@H](CC(C)C)[C@@H](S)CC(=O)OC [P4, Methyl 3-(S)-mercapto-6-methyl-4-(S)-[[[1(S)-[(methylamino)carbonyl]-2-(3-indolyl)ethyl]amino]carbonyl]heptanoate] | 
60 | CNC(=O)[C@H](Cc1c[nH]c2ccccc12)NC(=O)[C@H](CC(C)C)[C@@H](S)CC(=O)OC(C)C [P5, Isopropyl 3-(S)-mercapto-6-methyl-4-(S)-[[[1(S)-[(methylamino)carbonyl]-2-(3-indolyl)ethyl]amino]carbonyl]heptanoate] | 
60 | CNC(=O)[C@H](Cc1ccc(OC)cc1)NC(=O)[C@H](CC(C)C)[C@@H](S)CC(N)=O [P6, 3-(S)-Mercapto-N^1-[1-(S)-[(methylamino)carbonyl]-2-(4-methoxyphenyl)ethyl]-2-(S)-(2-methylpropyl)pentanediamide] | 

— patent US20020082200A1, “Use of inhibitors of human S-CD23” (SmithKline Beecham p.1.c., priority 1994, published 2002)
